Results on 40 molecules are retold here after patent publication US6218431A, “Substituted biphenyls” (Bayer Corporation, priority 1997, dated 2001).

Each structure is given as a SMILES string. Where two headings read alike, the source gives them in different places.

This test concerns the target T1, glucagon receptor (Homo sapiens, UniProt P47871).
T1 construct: expressed in transfected cells; host or cells: Chinese Hamster Ovary cells (CHO-HGR), membranes
The test can be described thus: glucagon receptor binding assay (125I-glucagon, CHO-HGR membranes). The note with it: for IC50: 60 min at room temperature; for inhibition at 20 µM: reported where 20 μM did not reduce glucagon binding by 50%. The essentials: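 Membranes from CHO cells expressing glucagon receptor (10 ug protein) in Tris pH 7.4 buffer with EDTA, BSA and bacitracin, incubated with test compound and 125I-glucagon (9 fmol) 60 min at room temperature. Bound radioactivity counted after filtration; nonspecific binding defined with 1 μM native glucagon; 0.5% DMSO.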

T1 sequence (P47871 26-477): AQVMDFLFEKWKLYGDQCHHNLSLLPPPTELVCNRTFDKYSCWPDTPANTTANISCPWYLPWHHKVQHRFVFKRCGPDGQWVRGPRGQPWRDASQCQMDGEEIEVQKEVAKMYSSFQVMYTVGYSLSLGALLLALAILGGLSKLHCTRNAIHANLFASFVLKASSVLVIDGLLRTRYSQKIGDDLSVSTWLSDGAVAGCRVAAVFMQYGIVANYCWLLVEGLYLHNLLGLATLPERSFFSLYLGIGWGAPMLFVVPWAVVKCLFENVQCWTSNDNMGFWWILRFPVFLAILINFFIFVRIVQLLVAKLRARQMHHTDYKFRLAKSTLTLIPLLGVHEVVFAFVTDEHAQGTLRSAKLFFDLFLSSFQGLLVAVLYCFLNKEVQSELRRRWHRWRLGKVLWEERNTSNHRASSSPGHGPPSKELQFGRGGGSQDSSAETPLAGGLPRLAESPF

Take `CCCCCc1c(C(C)C)nc(C(C)C)c(CO)c1-c1ccccc1O` [Example 163, 2,6-Diisopropyl-3-hydroxymethyl-4-(2-hydroxyphenyl)-5-pentylpyridine]: for the setting “125I-glucagon, read-out: IC50”, the IC50 is 500 nM.

For `CCCC=Cc1c(C(C)C)nc(C(C)C)c(CO)c1-c1ccc(-c2ccccc2)cc1` [Example 135, 2,6-Diisopropyl-3-hydroxymethyl-4-[4-(phenyl)phenyl]-5-(pent-1-enyl)pyridine], the inhibition at 20 µM worked out at 4.64%.

With `C=Cc1c(CC)nc(CC)c(CO)c1-c1ccccc1` [Example 8], testing at 20 µM gave an inhibition of 17%.

Regarding `CC(C)c1nc(C(C)C)c(CNC2CCCCC2)c(-c2ccc(F)cc2)c1CO` [Example 78, 2,6-Diisopropyl-3-hydroxymethyl-4-(4-fluorophenyl)-5-(cyclohexylamino)methylpyridine], the IC50 (125I-glucagon, read-out: IC50) is 7500 nM.

Take `CCCCCc1c(C(O)CCC)nc(C(C)C)c(CO)c1-c1ccc(F)cc1` (stereo not shown) [Example 211, 2-(1-Hydroxybutyl)-3-pentyl-4-(4-fluorophenyl)-5-hydroxymethyl-6-isopropylpyridine]: the IC50 (IC50, 125I-glucagon) was 19000 nM.

In turn, `CC(C)c1nc(C(C)C)c(C(O)c2ccccc2)c(-c2ccc(F)cc2)c1CO` (racemic) [Example 96, (±)-2,6-Diisopropyl-3-hydroxymethyl-4-(4-fluorophenyl)-5-(hydroxy-phenylmethyl)pyridine] displayed an inhibition at 20 µM of 27.8%.

Regarding `CCC=Cc1c(C(C)C)nc(C(C)C)c(CO)c1-c1ccc(F)cc1` [Example 20, 2,6-Diisopropyl-3-hydroxymethyl-4-(4-fluorophenyl)-5-(l-butenyl)-pyridine], under “125I-glucagon, read-out: IC50”, the IC50 amounted to 1300 nM.

Take `CC(C)c1nc(C(C)C)c(CO)c(-c2ccc(F)cc2)c1C=C1CCCC1` [Example 31, 2,6-Diisopropyl-3-hydroxymethyl-4-(4-flurorphenyl)-5-(cyclopentyl-idenemethylene)pyridine]: for the setting “125I-glucagon, read-out: IC50”, the IC50 was 2600 nM.

`CCCC=Cc1c(C(C)C)nc(C(C)C)c(CO)c1-c1cccc(F)c1` [Example 127, 2,6-Diisopropyl-3-hydroxymethyl-4-(3-fluorophenyl)-5-(pent-1-enyl)-pyridine] registered an inhibition at 20 µM of 45.5%.

For `CC(C)c1nc(C(C)C)c(CC=Cc2ccccc2)c(-c2ccc(F)cc2)c1CO` [Example 82, 2,6-Diisopropyl-3-hydroxymethyl-4-(4-fluorophenyl)-5-(3-phenyl-2-propenyl)pyridine], the IC50 (125I-glucagon, read-out: IC50) is 1900 nM.

Regarding `Cc1ccccc1CCCc1c(C(C)C)nc(C(C)C)c(CO)c1-c1ccc(F)cc1` [Example 84, 2,6-Diisopropyl-3-hydroxymethyl-4-(4-fluorophenyl)-5-[3-(2-methylphenyl)propyl]pyridine], the IC50 (125I-glucagon, read-out: IC50) amounted to 1900 nM.

`CCCC=Cc1c(C(C)C)nc(C(C)C)c(CO)c1-c1ccc(OCc2ccccc2)cc1` [Example 160, 2,6-Diisopropyl-3-hydroxymethyl-4-(4-benzyloxyphenyl)-5-(pent-1-enyl)pyridine] registered an inhibition at 20 µM of 21%.

As for `CC(C)=Cc1c(C(C)C)nc(C(C)C)c(CO)c1-c1ccccc1` [Example 11], the IC50 (125I-glucagon, read-out: IC50) is 8000 nM.

Take `CCCCCc1c(COC)nc(C(C)C)c(CO)c1-c1ccc(F)cc1` [Example 201, 2-Methoxymethyl-3-pentyl-4-(4-fluorophenyl)-5-hydroxymethyl-6-isopropylpyridine]: the inhibition at 20 µM was 46.7%.

For `COc1ccc(SCc2c(C(C)C)nc(C(C)C)c(CO)c2-c2ccc(F)cc2)cc1` [Example 56, 2,6-Diisopropyl-3-hydroxymethyl-4-(4-fluorophenyl)-5-[(4-methoxy-phenyl)thio]methylpyridine], for the setting “125I-glucagon, read-out: IC50”, the IC50 is 1900 nM.

As for `CCCC=Cc1c(C(C)C)nc(C(C)C)c(CO)c1-c1ccc(Cl)cc1` [Example 143, 2,6-Diisopropyl-3-hydroxymethyl-4-(4-chlorophenyl)-5-(pent-1-enyl)pyridine], the IC50 (125I-glucagon, read-out: IC50) turned out to be 900 nM.

`Cc1ccccc1SCc1c(C(C)C)nc(C(C)C)c(CO)c1-c1ccc(F)cc1` [Example 58, 2,6Diisopropyl-3-hydroxymethyl-4-(4-fluorophenyl)-5-[(2-methyl-phenyl)thio]methylpyridine]: the IC50 (125I-glucagon, read-out: IC50) turned out to be 1500 nM.

`CCCCCc1c(C(C)C)nc(C(C)C)c(CO)c1-c1cccc(Cl)c1` [Example 146, 2,6-Diisopropyl-3-hydroxymethyl-4-(3-chlorophenyl)-5-pentylpyridine] returned an inhibition at 20 µM of 48.8%.

As to `CCCCC(OC)c1c(C(C)C)nc(C(C)C)c(CO)c1-c1ccc(F)cc1` (racemic) [Example 100, (±)-2,6-Diisopropyl-3-hydroxymethyl-4-(4-fluorophenyl)-5-(1-methoxy-pentyl)pyridine], at 20 µM the inhibition was 39.6%.

On to `CCCCCc1c(C(C)OCC)nc(C(C)C)c(CO)c1-c1ccc(F)cc1` (stereo not shown) [Example 217, 2-(1-Ethoxyethyl)-3-pentyl-4-(4-fluorophenyl)-5-hydroxymethyl-6-isopropylpyridine], for which the IC50 (125I-glucagon, read-out: IC50) worked out at 8000 nM.

As for `Cc1cccc(/C=C/c2c(C(C)C)nc(C(C)C)c(CO)c2-c2ccc(F)cc2)c1` [Example 41, 2,6-Diisopropyl-3-hydroxvmethyl-4-(4fluorophenyl)-5-[2(E)-(3-methyl-phenyl)ethenyl]pyridine], the IC50 (125I-glucagon, read-out: IC50) turned out to be 600 nM.

In the case of `COC(C)c1c(C(C)C)nc(C(C)C)c(CO)c1-c1ccc(F)cc1` (racemic) [Example 98, (±)-2,6-Diisopropyl-3-hydroxymethyl-4-(4-fluorophenyl)-5-(1-methoxyethyl)pyridine], the IC50 (125I-glucagon, read-out: IC50) is 14000 nM.

Consider `CCCCCc1c(C(C)C)nc(C(C)C)c(CO)c1-c1cccc(O)c1` [Example 153, 2,6-Diisopropyl-3-hydroxymethyl-4-(3-hydroxyphenyl)-5-pentylpyridine], for which the IC50 (125I-glucagon, read-out: IC50) turned out to be 6000 nM.

`CCCCCc1c(C(C)C)cc(C(C)C)c(CO)c1-c1ccc(F)cc1` [Example 190, 3,5-Diisopropyl-2-hydroxymethyl-6-pentyl-4'-fluoro-1,1'-biphenyl]: the concentration for half-maximal inhibition (IC50) (125I-glucagon, read-out: IC50) was 300 nM.

As for `CCCCCCCc1c(C(C)C)nc(C(C)C)c(CO)c1-c1ccc(F)cc1` [Example 35, 2,6-Diisopropyl-3-hydroxymethyl-4-(4-fluorophenyl)-5-heptylpyridine], the IC50 (125I-glucagon, read-out: IC50) came to 700 nM.

Regarding `CCc1c(C(C)C)cc(C(C)C)c(C(C)O)c1-c1ccc(F)cc1O` (stereo not shown) [Example 246, 3,5-Diisopropyl-2-(1-hydroxyethyl)-6-ethyl-4'-fluoro-2'-hydroxy-1,1'-biphenyl], the IC50 (125I-glucagon, read-out: IC50) turned out to be 11 nM.

Consider `CCCCCc1c(C(C)C)nc(C(C)C)c(CO)c1-c1ccccc1F` [Example 138, 2,6-Diisopropyl-3-hydroxymethyl-4-(2-fluorophenyl)-5-pentylpyridine], for which, under “125I-glucagon, read-out: IC50”, the IC50 stood at 9000 nM.

For `CCc1ccc(SCc2c(C(C)C)nc(C(C)C)c(CO)c2-c2ccc(F)cc2)cc1` [Example 62, 2,6-Diisopropyl-3-hydroxymethyl-4-(4-fluorophenyl)-5-[(4-ethyl-phenyl)thio]methylpyridine], under “125I-glucagon, read-out: IC50”, the half-maximal inhibitory concentration (IC50) came out at 1100 nM.

`CC(C)c1nc(C(C)C)c(CSc2ccc3ccccc3c2)c(-c2ccc(F)cc2)c1CO` [Example 52, 2,6Diisopropyl-3hydroxymethyl-4-(4-fluorophenyl)-5-(2-naphthyl-thio)methlpyridine]: the IC50 (125I-glucagon, read-out: IC50) was 20000 nM.

As for `CCCc1c(C)cc(C)c(C(C)O)c1-c1ccc(F)cc1` (stereo not shown) [Example 195, 3,5-Dimethyl-2-(1-hydroxyethyl)-6-propyl-4'-fluoro-1,1'-biphenyl], the IC50 (125I-glucagon, read-out: IC50) worked out at 12000 nM.

`CC(C)c1nc(C(C)C)c(CN(C)C)c(-c2ccc(F)cc2)c1CO` [Example 79, 2,6-Diisopropyl-3-hydroxymethyl-4-(4-fluorophenyl)-5-(dimethylamino)-methylpyridine]: where the note is “125I-glucagon, read-out: IC50”, the IC50 was determined as 10000 nM.

For `CCCCCc1c(C(C)C)nc(C(C)C)c(CO)c1-c1ccc(Cl)cc1Cl` [Example 148, 2,6-Diisopropyl-3-hydroxymethyl-4-(2,4-dichlorophenyl)-5-pentylpyridine], the inhibition at 20 µM is 7.78%.

`CC(C)c1nc(C(C)C)c(CN2CCC(N3CCCCC3)CC2)c(-c2ccc(F)cc2)c1CO` [Example 74, 2,6-Diisopropyl-3-hydroxymethyl-4-(4-fluorophenyl)-5-[(4-piperidinopiperidin-1-yl)methyl]pyridine] registered an inhibition at 20 µM of 27.1%.

`CC(C)c1nc(C(C)C)c(CCCCc2ccccc2)c(-c2ccc(F)cc2)c1CO` [Example 39]: the half-maximal inhibitory concentration (IC50) (125I-glucagon, read-out: IC50) was 1300 nM.

In turn, `CCCC=Cc1c(C(C)C)nc(C(C)C)c(CO)c1-c1ccccc1C` [Example 141, 2,6-Diisopropyl-3-hydroxymethyl-4-(2-methylphenyl)-5-(pent-1-enyl)-pyridine] came in with an inhibition at 20 µM of 34%.

With `CCCCCc1c(C(C)=O)nc(C(C)C)c(CO)c1-c1ccc(F)cc1` [Example 218, 2-Acetyl-3-pentyl-4-(4-fluorophenyl)-5-hydroxymethyl-6-isopropylpyridine], the 50% inhibitory concentration (IC50) (125I-glucagon, read-out: IC50) was 6500 nM.

With `CCCCCc1c(C(C)C)cc(C(C)C)c(C(C)O)c1-c1ccc(F)cc1` (single isomer, unassigned; (+)) [Example 243, (+)-3,5-Diisopropyl-2-(1-hydroxyethyl)-6-pentyl-4'-fluoro-1,1'-biphenyl], the IC50 (125I-glucagon, read-out: IC50) came out at 86 nM.

`Cc1cccc(CCc2c(C(C)C)nc(C(C)C)c(CO)c2-c2ccc(F)cc2)c1` [Example 44, 2,6-Diisopropyl-3-hydroxymethyl-4-(4-fluorophenyl)-5-[2-(3-methyl-phenyl)ethyl]pyridine]: under “125I-glucagon, read-out: IC50”, the IC50 amounted to 1000 nM.

`CCCCCc1c(C(C)C)nc(C(C)C)c(CO)c1-c1ccc(OC)cc1` [Example 169, 2,6-Diisopropyl-3-hydroxymethyl-4-(4-methoxyphenyl)-5-pentyl-pyridine] returned an inhibition at 20 µM of 37.1%.

On to `CC(C)c1nc(C(C)C)c(CSc2ccccc2)c(-c2ccc(F)cc2)c1CO` [Example 47, 2,6Diisopropyl-3-hydroxymethyl-4-(4fluorophenyl)-5[(phenylthio)-methyl]pyridine], for which, where the note is “125I-glucagon, read-out: IC50”, the half-maximal inhibitory concentration (IC50) stood at 1500 nM.
